Results: article PMC3954981 (Bioorganic & medicinal chemistry, 2014)
Read-outs that look alike come from different tables or passages of the source.

Experiments:
PADs 1, 2, 3, and 4 = experiment: Library screening, inhibition of the PADs described in words; assay type: biochemical, human; conditions: 10 μM, PADs 1–4
PADs = conditions: second generation mechanism-based inactivator; cited from earlier work
PAD2 [1] = molecular target: T1, PAD2 (Homo sapiens, UniProt Q9Y2J8); experiment: Gel-based competitive ABPP with RFA; assay type: binding; conditions: RFA 10 μM, PAD2 2 μM, inhibitor 0–50 μM
T1 sequence (Q9Y2J8 whole entry): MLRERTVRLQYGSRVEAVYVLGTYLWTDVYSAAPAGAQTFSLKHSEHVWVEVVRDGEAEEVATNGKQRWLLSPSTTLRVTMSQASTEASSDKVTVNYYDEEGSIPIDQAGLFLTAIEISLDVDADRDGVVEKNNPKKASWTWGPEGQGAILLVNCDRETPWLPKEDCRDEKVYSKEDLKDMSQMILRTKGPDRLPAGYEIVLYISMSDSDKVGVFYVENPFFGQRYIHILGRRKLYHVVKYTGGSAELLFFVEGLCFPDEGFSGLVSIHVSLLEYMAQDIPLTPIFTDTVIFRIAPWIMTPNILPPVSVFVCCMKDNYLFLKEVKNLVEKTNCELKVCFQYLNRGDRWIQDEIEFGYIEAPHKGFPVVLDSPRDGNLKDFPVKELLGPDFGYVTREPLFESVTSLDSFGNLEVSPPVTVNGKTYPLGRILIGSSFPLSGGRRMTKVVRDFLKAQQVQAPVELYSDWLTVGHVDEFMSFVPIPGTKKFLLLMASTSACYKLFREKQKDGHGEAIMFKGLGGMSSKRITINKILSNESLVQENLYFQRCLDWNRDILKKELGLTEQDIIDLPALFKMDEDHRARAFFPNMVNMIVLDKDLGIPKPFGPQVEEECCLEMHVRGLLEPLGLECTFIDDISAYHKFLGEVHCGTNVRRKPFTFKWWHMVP

PAD4 [2] = molecular target: T2, PAD4 (Homo sapiens, UniProt Q9UM07); experiment: Gel-based competitive ABPP with RFA; assay type: binding; conditions: RFA 10 μM, PAD4 2 μM, inhibitor 0–50 μM
T2 sequence (Q9UM07 whole entry): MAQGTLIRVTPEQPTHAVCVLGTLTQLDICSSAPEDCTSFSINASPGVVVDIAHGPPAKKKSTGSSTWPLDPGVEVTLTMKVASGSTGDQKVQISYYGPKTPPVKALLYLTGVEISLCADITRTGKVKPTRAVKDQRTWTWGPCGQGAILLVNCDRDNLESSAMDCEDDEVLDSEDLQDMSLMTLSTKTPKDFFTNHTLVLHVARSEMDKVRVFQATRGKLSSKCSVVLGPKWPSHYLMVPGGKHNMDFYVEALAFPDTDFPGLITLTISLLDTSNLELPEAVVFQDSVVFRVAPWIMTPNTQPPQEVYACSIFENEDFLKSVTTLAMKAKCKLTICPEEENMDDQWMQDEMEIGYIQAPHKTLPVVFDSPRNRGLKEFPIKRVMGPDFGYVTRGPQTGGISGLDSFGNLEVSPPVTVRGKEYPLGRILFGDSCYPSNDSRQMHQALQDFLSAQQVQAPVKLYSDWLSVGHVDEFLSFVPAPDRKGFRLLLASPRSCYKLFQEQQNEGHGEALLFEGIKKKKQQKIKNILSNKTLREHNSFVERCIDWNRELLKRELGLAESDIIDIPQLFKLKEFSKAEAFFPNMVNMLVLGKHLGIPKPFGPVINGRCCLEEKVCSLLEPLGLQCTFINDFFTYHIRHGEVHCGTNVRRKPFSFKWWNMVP

PAD4 [3] = molecular target: T2, PAD4; experiment: Inactivation kinetics; assay type: biochemical
PAD2 [4] = molecular target: T1, PAD2; experiment: MALDI-MS analysis of inhibitor-treated enzyme; assay type: binding; conditions: 1:10 enzyme:inhibitor, 1 h, PAD2 3 μM
PAD4 [5] = molecular target: T2, PAD4; experiment: Irreversibility study; assay type: biochemical; conditions: for recovery of PAD4 enzymatic activity after dialysis: 100 μM compound, 1 h, dialysis overnight
PAD4 [6] = molecular target: T2, PAD4; experiment: Substrate; assay type: biochemical; conditions: inactivator 0.5 μM; BAEE 2 mM and 10 mM
PAD2 [7] = molecular target: T1, PAD2; experiment: Inactivation kinetics; assay type: biochemical
PAD3 [8] = molecular target: T3, PAD3 (Homo sapiens, UniProt Q9ULW8); experiment: Inactivation kinetics; assay type: biochemical; conditions: read-out: kinact/KI (apparent), PAD3
T3 sequence (Q9ULW8 1-664): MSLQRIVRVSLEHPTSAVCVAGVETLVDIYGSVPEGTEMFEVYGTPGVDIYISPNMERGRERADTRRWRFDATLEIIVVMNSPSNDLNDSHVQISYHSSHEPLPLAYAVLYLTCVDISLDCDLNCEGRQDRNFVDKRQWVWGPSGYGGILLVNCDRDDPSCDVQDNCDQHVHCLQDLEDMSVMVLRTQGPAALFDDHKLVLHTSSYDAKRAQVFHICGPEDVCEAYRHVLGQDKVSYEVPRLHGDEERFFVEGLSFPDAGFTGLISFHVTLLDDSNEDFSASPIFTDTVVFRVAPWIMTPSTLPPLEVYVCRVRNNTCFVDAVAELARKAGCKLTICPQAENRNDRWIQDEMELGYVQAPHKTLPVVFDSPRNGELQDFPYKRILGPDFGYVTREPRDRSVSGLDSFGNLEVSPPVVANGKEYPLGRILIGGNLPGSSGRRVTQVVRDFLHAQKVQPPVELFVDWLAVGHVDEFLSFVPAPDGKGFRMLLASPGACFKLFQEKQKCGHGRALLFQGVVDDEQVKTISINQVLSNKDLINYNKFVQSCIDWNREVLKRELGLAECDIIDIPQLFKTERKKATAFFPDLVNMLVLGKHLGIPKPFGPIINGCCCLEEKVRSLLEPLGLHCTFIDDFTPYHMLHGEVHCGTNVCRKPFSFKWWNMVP

WT-PAD4 = WT-PAD4 (Homo sapiens, UniProt Q9UM07); experiment: MALDI-MS analysis of inhibitor-treated enzyme; assay type: binding; conditions: 1:10 enzyme:inhibitor, 1 h, WT-PAD4 3 μM
Sequence of WT-PAD4 (Q9UM07 whole entry): as the sequence (Q9UM07 whole entry) above

PAD4 C645A = PAD4 C645A (Homo sapiens, UniProt Q9UM07, C645A); experiment: MALDI-MS analysis of inhibitor-treated enzyme; assay type: binding; conditions: 1:10 enzyme:inhibitor, 1 h, PAD4 C645A 5 μM
Sequence of PAD4 C645A (Q9UM07 whole entry C645A): as the sequence (Q9UM07 whole entry) above, with C645A counted along it

PAD1 [9] = molecular target: T4, PAD1 (Homo sapiens, UniProt Q9ULC6); experiment: Inactivation kinetics; assay type: biochemical; conditions: read-out: kinact/KI (apparent), PAD1
T4 sequence (Q9ULC6 1-663): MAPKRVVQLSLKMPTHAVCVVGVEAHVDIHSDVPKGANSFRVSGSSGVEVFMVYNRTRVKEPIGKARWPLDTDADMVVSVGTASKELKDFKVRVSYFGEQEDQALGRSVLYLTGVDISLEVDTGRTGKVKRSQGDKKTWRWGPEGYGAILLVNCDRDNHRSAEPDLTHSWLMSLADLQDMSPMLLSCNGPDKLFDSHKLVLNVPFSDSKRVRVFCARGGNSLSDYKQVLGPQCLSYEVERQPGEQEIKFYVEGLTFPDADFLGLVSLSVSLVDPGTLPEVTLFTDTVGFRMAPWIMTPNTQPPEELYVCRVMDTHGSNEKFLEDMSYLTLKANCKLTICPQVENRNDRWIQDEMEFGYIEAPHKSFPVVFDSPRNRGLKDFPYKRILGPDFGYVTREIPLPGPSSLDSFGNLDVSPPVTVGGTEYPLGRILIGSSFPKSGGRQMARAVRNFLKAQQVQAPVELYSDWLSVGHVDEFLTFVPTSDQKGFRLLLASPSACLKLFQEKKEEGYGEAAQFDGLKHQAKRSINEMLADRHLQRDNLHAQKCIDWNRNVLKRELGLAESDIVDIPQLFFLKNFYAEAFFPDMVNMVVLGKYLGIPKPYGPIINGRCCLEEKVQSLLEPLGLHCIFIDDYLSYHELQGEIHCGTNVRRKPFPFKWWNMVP

PAD4 [10] = molecular target: T2, PAD4; conditions: cited from earlier work
NIH 3T3 cells = experiment: XTT cell viability assay; conditions: 10 μM, 3 days
U2OS cells = experiment: XTT cell viability assay; conditions: 10 μM, 3 days
PAD1 [11] = molecular target: T4, PAD1; experiment: Irreversibility study; assay type: biochemical; conditions: 170-fold excess of 17, dialyzed 20 h
PAD2 [12] = molecular target: T1, PAD2; experiment: Irreversibility study; assay type: biochemical; conditions: 170-fold excess of 17, dialyzed 20 h
PAD3 [13] = molecular target: T3, PAD3; experiment: Irreversibility study; assay type: biochemical; conditions: 170-fold excess of 17, dialyzed 20 h
[14] = read-out: kinact/KI (apparent), PAD4
[15] = read-out: kinact/KI (apparent), PAD2

SMILES: COC(=O)c1cccc(-c2ccc3ccc(Br)c(O)c3n2)n1 [Compound 5]
- inhibition of the PADs (in words) (PADs 1, 2, 3, and 4): no inhibition

SMILES: CC(=O)N[C@H](C(=O)N[C@@H](CC(=O)O)C(=O)N[C@@H](CCCN=C(N)CF)C(N)=O)[C@@H](C)O [Thr-Asp-F-amidine (TDFA), Thr-Asp-F-amidine]
- kinact/KI (PADs): 26,000 M^−1min^−1

SMILES: CCOC(=O)c1nc(C(=O)OCC)c(C(=O)OCC)c(-c2ccc(OC)c(OC)c2OCc2ccccc2)c1C [Compound 7]
- inhibition of the PADs (in words) (PADs 1, 2, 3, and 4): little to no inhibition

SMILES: NC1=CC(=O)c2ccc(-c3ccccn3)nc2C1=O [Compound 3]
- labeling of PAD2 by RFA (PAD2 [1]): prevent labeling
- labeling of PAD4 by RFA (PAD4 [2]): prevent labeling
- kinact/KI (PAD4 [3]; read-out: kinact/KI, PAD4): 95 M⁻¹ s⁻¹
- mass shift of PAD2 (PAD2 [4]): 324 Da
- recovery of PAD4 enzymatic activity after dialysis (PAD4 [5]): little to no activity is recovered
- substrate protection against inactivation of PAD4 (PAD4 [6]): little substrate protection was observed
- kinact (PAD2 [7]; read-out: kinact, PAD2): 0.00117 s⁻¹
- kinact/KI (PAD2 [7]; read-out: kinact/KI, PAD2): 138 M⁻¹ s⁻¹
- kinact/KI (PAD3 [8]): 30 M⁻¹ s⁻¹
- mass shift of WT-PAD4 (Δ Da) (WT-PAD4): 692 Da
- mass shift of PAD4 C645A (Δ Da) (PAD4 C645A): 737 Da
- inhibition of the PADs (in words) (PADs 1, 2, 3, and 4): strong inhibition
- kinact/KI (PAD1 [9]): 53.3 M⁻¹ s⁻¹

SMILES: COC(=O)c1nc(C(=O)OC)c(NC(C)=O)c(-c2ccccc2Br)c1C [Compound 6]
- inhibition of the PADs (in words) (PADs 1, 2, 3, and 4): little to no inhibition

SMILES: NC1=CC(=O)c2ccc(-c3cc(C(=O)O)ccc3N)nc2C1=O [Compound 22]
- inhibition of the PADs (in words) (PADs 1, 2, 3, and 4): loss in potency

SMILES: O=C(O)c1cccc(-c2ccc3ccc(Br)c(OCc4ccccc4)c3n2)n1 [Compound 23]
- inhibition of the PADs (in words) (PADs 1, 2, 3, and 4): no inhibition

SMILES: NC1=C(N)C(=O)c2ccccc2C1=O [Compound 19]
- inhibition of the PADs (PADs 1, 2, 3, and 4): ~ 50%

SMILES: NC1=CC(=O)c2cccnc2C1=O [Compound 14]
- kinact/KI (PAD4 [3]; [14]): 93.3 M⁻¹ s⁻¹
- recovery of PAD4 enzymatic activity after dialysis (PAD4 [5]): little to no activity is recovered
- kinact/KI (PAD2 [7]; [15]): 86.7 M⁻¹ s⁻¹
- kinact/KI (PAD3 [8]): 51.7 M⁻¹ s⁻¹
- inhibition of the PADs (in words) (PADs 1, 2, 3, and 4): strong inhibition
- kinact/KI (PAD1 [9]): 76.7 M⁻¹ s⁻¹

SMILES: COC(=O)c1nnc(C(=O)OC)c(-c2ccc3cc(OC)ccc3n2)n1 [Compound 26]
- inhibition of the PADs (in words) (PADs 1, 2, 3, and 4): no inhibition

SMILES: COC(=O)c1nc(C(=O)OC)c(N)c(-c2ccccc2Br)c1C [Compound 8]
- inhibition of the PADs (in words) (PADs 1, 2, 3, and 4): little to no inhibition

SMILES: COC1=C(N)C(=O)c2nc(-c3nc(C(=O)O)c(C)c(-c4ccc(OC)c(OC)c4O)c3N)ccc2C1=O [Streptonigrin, reference compound]
- labeling of PAD2 by RFA (PAD2 [1]): decreased the labeling
- labeling of PAD4 by RFA (PAD4 [2]): decreased the labeling
- mass shift of PAD2 (PAD2 [4]): 469 Da
- mass shift of WT-PAD4 (Δ Da) (WT-PAD4): 710 Da
- mass shift of PAD4 C645A (Δ Da) (PAD4 C645A): 924 Da
- preferential inhibition of PAD4 versus PAD1 (PAD4 [10]): 119 fold
- preferential inhibition of PAD4 versus PAD2 (PAD4 [10]): 37 fold
- preferential inhibition of PAD4 versus PAD3 (PAD4 [10]): 126 fold

SMILES: COc1ccc2nc(C#N)ccc2c1 [Compound 30]
- inhibition of the PADs (in words) (PADs 1, 2, 3, and 4): no inhibition

SMILES: COC(=O)c1nnc(C(=O)OC)c(-c2ccc3c([N+](=O)[O-])c(OC)ccc3n2)n1 [Compound 25]
- inhibition of the PADs (in words) (PADs 1, 2, 3, and 4): no inhibition

SMILES: COC1=C(Br)C(=O)c2ncccc2C1=O [Compound 10]
- kinact/KI (PAD4 [3]; [14]): 81.7 M⁻¹ s⁻¹
- recovery of PAD4 enzymatic activity after dialysis (PAD4 [5]): little to no activity is recovered
- cells remaining viable, NIH 3T3 (NIH 3T3 cells): retain significant viability
- kinact/KI (PAD2 [7]; [15]): 63.3 M⁻¹ s⁻¹
- kinact/KI (PAD3 [8]): 25 M⁻¹ s⁻¹
- inhibition of the PADs (in words) (PADs 1, 2, 3, and 4): strong inhibition
- kinact/KI (PAD1 [9]): 60 M⁻¹ s⁻¹
- cells remaining viable, U2OS (U2OS cells): retain significant viability

SMILES: COc1ccc2ncccc2c1[N+](=O)[O-] [Compound 29]
- inhibition of the PADs (in words) (PADs 1, 2, 3, and 4): no inhibition

SMILES: COC(=O)c1cc(-c2ccccc2)c(C(=O)OC)c(-c2ccc3ccccc3n2)n1 [Compound 24]
- inhibition of the PADs (in words) (PADs 1, 2, 3, and 4): no inhibition

SMILES: COC(=O)c1nc(C(C)=O)c2[nH]c3ccccc3c2c1C [Compound 4]
- inhibition of the PADs (in words) (PADs 1, 2, 3, and 4): little to no inhibition

SMILES: NC1=CC(=O)c2ccc(-c3cccc(C(=O)O)n3)nc2C1=O [Compound 17]
- PAD1 activity regained after dialysis (PAD1 [11]): Little to no activity was regained
- labeling of PAD2 by RFA (PAD2 [1]): prevent labeling
- labeling of PAD4 by RFA (PAD4 [2]): prevent labeling
- PAD2 activity regained after dialysis (PAD2 [12]): Little to no activity was regained
- PAD3 activity regained after dialysis (PAD3 [13]): Little to no activity was regained
- recovery of PAD4 enzymatic activity after dialysis (PAD4 [5]): little to no activity is recovered
- PAD4 activity regained after dialysis (PAD4 [5]; 170-fold excess of 17, dialyzed 20 h): Little to no activity was regained
- cells remaining viable, NIH 3T3 (NIH 3T3 cells): retain significant viability
- inhibition of the PADs (in words) (PADs 1, 2, 3, and 4): strong inhibition
- cells remaining viable, U2OS (U2OS cells): retain significant viability
